Assay results: article PMC12266748, “A Xanthine Derivative With Novel Heat Shock Protein 90‐Alpha Inhibitory and Senolytic Properties” (Aging Cell, 2025)
Read-outs that look alike come from different tables or passages of the source.

How the values were obtained:
HSP90α [1] = target: T1, HSP90α (Homo sapiens, UniProt P07900); assay: HSP90 N-Terminal Domain Assay Kit, fluorescence polarization competition with FITC-Geldanamycin; format: binding; design: purchased BPS Bioscience 50293; conditions: dose-response 1 pM to 10 μM, n = 3, extrapolated with GraphPad Prism; read-out: HSP90α inhibition IC50
Method: HSP90‐directed inhibitory activity was assessed employing the HSP90 N‐Terminal Domain Assay Kit (BPS Bioscience) according to the manufacturer's instructions. The fluorescence intensity was measured with a multiplate reader (Victor Nivo‐Perkin Elmer). The IC50 was calculated by analyzing the data using GraphPad Prism 10 software.
HSP90 inhibition activity assay. […] […] […] Data are the percentage of residual enzyme activity relative to the solvent (DMSO). The IC50s were calculated by analyzing the data using GraphPad Prism 10 software.

HSP90α [2] = target: T1, HSP90α; assay: Cellular thermal shift assay (CETSA) on cellular lysates, HSP90α; conditions: 46°C, compound 0.5 mM
Method: Cellular Thermal Shift Assay (CETSA). […] Briefly, the cellular extract was lysed in RIPA buffer (10 mM Tris-HCl pH 7.4, 250 mM NaCl, 1% NP40/IGEPAL, 1% DOC, 0.01% SDS, 0.01% Glycerol, supplemented with protease/phosphatase inhibitor, PI/PhI mix and 2 mM DTT) and protein concentration was determined by a BCA kit (Pierce, Life Technologies, TFS, Waltham, MA, USA). Samples were homogenized by 3 cycles of freeze-thawing using liquid nitrogen and centrifuged at 13000 rpm at 4 °C for 30 min to separate the soluble fraction from the debris.
Following the supplier's recommendations, samples were loaded into the proper cartridge (12- 230 kDa Wes/Jess Separation Modules, ProteinSimple, Biotechne, Minneapolis, MN, USA). HSP90α (1:50, MsMAb, Abcam), HSP90β (1:50, RbMAb, Abcam), GRP94 (1:50, RbMAb, Abcam), TRAP1 (1:50, MsMAb, Abcam), α-Tubulin (1:500, MsMAb, Abcam), and β-Actin (1:500, RbMAb, Abcam) were used as primary antibodies. Secondary antibodies were Anti-Mouse Secondary HRP and Anti-Rabbit Secondary HRP (ProteinSimple, Biotechne, Minneapolis, MN, USA).

IMR90 cells [3] = assay: Dose-response curves on proliferating and replicative senescent IMR90 (Trypan blue cell count); format: cell-based; conditions: proliferating IMR90 (PD14), 48 h
IMR90 cells [4] = assay: as above; format: cell-based
Excerpt: (§1) IMR90 and WI38 lung fibroblasts were purchased from ECACC‐Merck. Human bone marrow (BM)‐derived mesenchymal stromal cells (MSCs) were purchased from Lonza. Human umbilical vein endothelial cells (HUVECs) are primary cells obtained from a pool of donors purchased from Clonetics (Lonza). Murine ear fibroblasts (MearFs) were obtained from C57BL/6J mice maintained in the INRCA “Specific Pathogen Free” (SPF) animal facility. MCF7 breast cancer cells were purchased from ATCC. For dose–response curves, IMR90 and WI38 were induced to senescence through replicative passages; MSCs, HUVECs, and MearFs senescence was induced with Doxorubicin; MCF7 senescence was induced with 4‐Hydroxytamoxifen (Lee et al. [2014]). The EC50 was calculated using GraphPad Prism 10 software. All treatment specifications are reported in the extended section.
(§2) Cell culture and treatment. IMR90 cells (Homo sapiens, fetal lung, fibroblast) and WI38 cells (Homo sapiens, fetal lung, fibroblast) were purchased from ECACC-Merck (Merck, Darmstadt, Germany) and cultured in MEM medium (Euroclone, Milano, Italy) supplemented with 1% L-Glutamine (Euroclone, Milano, Italy), 1% Penicillin-Streptomycin (Euroclone, Milano, Italy), and 10% Fetal Bovine Serum (FBS, Euroclone, Milano, Italy), at 37°C, 5% CO2. IMR90 cells with a population doubling (PD) from PD15 to PD23 were used; cells were considered incrementally senescent from passage PD19 to passage PD23. WI38 cells were used from PD26 to PD53. Cells were considered incrementally senescent from passage PD49 to passage PD53. For the compounds in vitro screening, IMR90 cells with passages from PD15 to PD23 were tested at increasing concentrations of 0.5 μM, 1 μM, 10 μM, and 25 μM over 24 and 48 h to evaluate the compounds' efficacy and cytotoxicity compared to the Vehicle (DMSO ≤ 0.1%). Cells were counted manually, in triplicate, using Trypan blue reagent (Euroclone) and disposable Bürker chambers. […] K5 dose-response proliferation curves were performed with compound K5 (Molport, SIA, Riga, Latvia) in concentrations 0.1, 0.5, 1, 5, 10, 50, 100, and 200 μM for 48 h. Cells were counted using a Trypan blue reagent and EVAplus cell counter. The EC50s were calculated by analyzing the data using GraphPad Prism 10 software.
MCF7 cell line (ATCC; HTB-22, Homo sapiens, breast cancer) was purchased from ATCC; cells were grown in MEM medium (Corning, New York, USA, #15-010-CVR) supplemented with 10% FBS (Gibco, Invitrogen, Carlsbad, CA, USA, #10270106), 1% glutamine (Corning #25005-CI), 1% penicillin and streptomycin (Corning #30002-CI). Cells were incubated at 37 °C with 5% CO2. Senescent status induction: MCF7 were plated 24 h before the treatment with 4-Hydroxytamoxifen (TAM) 10 μM to induce the senescence described by (Lee et al. 2014). Control cultures were treated with equal volumes of 75% ethanol as the vehicle. The treatment with TAM lasts 96 h, after which the cells have been washed and treated with the senolytic drugs K5 10 µM for another 96 h. The treatment with the senolytic compounds has been renewed at 48 h. Cell mortality and vitality curves after treatment with K5 (10 μM, orange) or Vehicle (DMSO, grey) were monitored using the Incucyte live-cell Analysis system (Sartorius, Goettingen, Germany). The estimated Senolytic index (SI) was calculated as the ratio between the EC50 in proliferating cells and the EC50 in senescent cells, extrapolated using GraphPad Prism 10 software.

IMR90 cells [5] = assay: In vitro screening of the 14 in silico-selected compounds, surviving cell count, proliferating vs senescent IMR90; format: cell-based, Homo sapiens; conditions: 48 h; for effect on non-senescent IMR90 cells: PD15-PD17, 1 μM; for senolytic activity on senescent IMR90 cells: PD19-PD21, 1 μM
Excerpt: as §1, §2

IMR90 cells [6] = assay: Immunofluorescence of Cytochrome C / mitochondria colocalization in senescent IMR90; format: cell-based, Homo sapiens; conditions: senescent IMR90 (PD21), 48 h, K5 25 μM, Dasatinib 1 μM; Vehicle OR = 0.913
Method: (§3) Treated/untreated senescent IMR90 and MCF7 cells were fixed, permeabilized, and stained following suppliers' recommendations. Images were acquired using an Olympus IX83 research inverted microscope (IF) and a phase microscopy Nikon ECLIPSE Ei R (IHC) at 40× MAG.
(§4) Immunofluorescence staining. Treated/untreated IMR90 and MCF7 cells were cultured in LabTek II chamber slides (Nunc, Biosigma). At the final time point, cells were stained with 500 nM MitoTracker Orange (Thermo Fisher Scientific) for 30 min at 37°C and then fixed in 4% PFA (Merck) for 10 min, RT, and permeabilized with 0.1% Triton solution (Merck) for 30 min at RT. Samples were blocked in 5% BSA for 90 min, incubated overnight at 4°C with primary antibody against Cytochrome C (1:50, RbMAb, Abcam), and 1h at RT with secondary antibody Alexa Fluor 488 goat anti-Rb (1:200, Thermo Fisher Scientific). Nuclei were stained with DAPI (Cell Signaling) for 10 min at RT, and ProLong Glass Antifade Mountant (Thermo Fisher Scientific) was used to seal coverslips. Images were acquired using an Olympus IX83 research inverted microscope at 40X magnifications.

MCF7 cells = assay: Immunofluorescence of Cytochrome C / mitochondria colocalization in senescent MCF7; format: cell-based, Homo sapiens; conditions: MCF7, TAM 10 µM 96 h, then 72 h K5 10 µM or Dasatinib 1 µM
Method: as §3, §4

SMILES: Cn1c(=O)c2c(ncn2C)n(C)c1=O [Caffeine, reference compound]
- IC50 (HSP90α [1]): > 300000 nM
- interaction / stabilization of HSP90α in CETSA (HSP90α [2]): does not interact with the protein

SMILES: CO[C@H]1/C=C\C=C(/C)C(=O)NC2=CC(=O)C(NCCN(C)C)=C(C[C@@H](C)C[C@H](OC)[C@H](O)[C@@H](C)/C=C(\C)[C@@H]1OC(N)=O)C2=O [Compound 17-DMAG]
- EC50 (IMR90 cells [3]): 785 nM
- Senolytic evidence (no, partly/yes) (IMR90 cells [4]; IMR90, Replicative/passages): Yes
- EC50 (IMR90 cells [4]; IMR90, Replicative/passages, read-out: EC50 senescent cells): 85 nM
- EC50 (IMR90 cells [4]; IMR90, read-out: EC50 proliferating cells): 780 nM
- effect on non-senescent IMR90 cells (IMR90 cells [5]): cytotoxic effects also visible in non

SMILES: Cc1[nH]nc(-c2ccc(O)cc2O)c1Oc1ccc(F)cc1 [Compound B2, 4-[4-(4-fluorophenoxy)-5-methyl-1H-pyrazol-3-yl]benzene-1,3-diol]
- senolytic activity on senescent IMR90 cells (IMR90 cells [5]): evident senolytic activity

SMILES: O=S(=O)(NCc1ccc(-c2ccc(F)cc2F)o1)c1ccccc1 [Compound C2, N-{[5-(2,4-difluorophenyl)furan-2-yl]methyl}benzenesulfonamide]
- senolytic activity on senescent IMR90 cells (IMR90 cells [5]): evident senolytic activity

SMILES: Cc1nc(Nc2ncc(C(=O)Nc3c(C)cccc3Cl)s2)cc(N2CCN(CCO)CC2)n1 [Dasatinib, reference compound]
- Cytochrome C / mitochondria colocalization, Overlap R (OR) (IMR90 cells [6]): 0.639
- Cytochrome C / mitochondria colocalization, Overlap R (OR) (MCF7 cells; TAM + Vehicle OR = 0.978): 0.956
- Cytochrome C / mitochondria colocalization, Pearson's Rr (PRr) (MCF7 cells; TAM + Vehicle PRr = 0.961): 0.928

SMILES: CC(C)c1cc(-c2n[nH]c(=O)n2-c2ccc3c(ccn3C)c2)c(O)cc1O [Ganetespib]
- EC50 (IMR90 cells [3]; Homo sapiens, IMR-90): 1040 nM
- EC50 (IMR90 cells [4]; Homo sapiens, IMR-90, IMR90, Replicative/passages, read-out: EC50 senescent cells): 87 nM
- EC50 (IMR90 cells [4]; Homo sapiens, IMR-90, IMR90, read-out: EC50 proliferating cells): 1000 nM
- Senolytic evidence (no, partly/yes) (IMR90 cells [4]; IMR90, Replicative/passages): Yes
- effect on non-senescent IMR90 cells (IMR90 cells [5]): cytotoxic effects also visible in non
